From publication PMC4965013, “Open Source Drug Discovery with the Malaria Box Compound Collection for Neglected Diseases and Beyond” (PLoS Pathogens, 2016)
pEC50: −log10 of the molar value. Values belong to the compound of their own block, whether it stands above or below them.

How the values were obtained:
[1] = system: P. falciparum 3D7 trophozoites; assay: Metabolomic fingerprint profiling LC-MS; format: cell-based, Plasmodium falciparum; design: UDP-D-glucose / ADP-D-glucose: unit not given here; conditions: for Acetyllysine / N-acetyl-L-ornithine / N-carbamoyl-L-aspartate / NADPH / dAMP / dCMP / dTDP / dTMP / dTTP / dihydroorotate / orotate / DLH / DLS/SDL/SID / PD / PEE / PVNF / 3-phosphoglycerate / ADP-D-glucose / ATP / CDP / D-sedoheptulose-1/7-phosphate / FAD / GMP / NAD+ / NADP+ / Octoluse Bisphosphate / Pyroglutamic acid / UDP-D-glucose / UDP-D-glucuronate / UDP-N-acetyl-glucosamine / UDP / UMP / UTP / a-ketoglutarate / citrate/isocitrate / cytidine / dATP / dGMP/AMP / fumarate / glucose-1/6-phosphate / glycerate / guanine / guanosine / hypoxanthine / indole / inosine / nicotinate / ornithine / phosphoenolpyruvate / pyruvate / ribose-phosphate / sarcosine/alanine / sn-glycerol-3-phosphate / succinate/methylmalonic acid / uridine / xanthosine: S2 Table Metabolomics; for Acetyllysine: metabolite Acetyllysine; for N-acetyl-L-ornithine: metabolite N-acetyl-L-ornithine; for N-carbamoyl-L-aspartate: metabolite N-carbamoyl-L-aspartate; for NADPH: metabolite NADPH; for dAMP: metabolite dAMP; for dCMP: metabolite dCMP; for dTDP: metabolite dTDP; for dTMP: metabolite dTMP; for dTTP: metabolite dTTP; for dihydroorotate: metabolite dihydroorotate; for orotate: metabolite orotate; for DLH: peptide DLH; for DLS/SDL/SID: peptide DLS/SDL/SID; for PD: peptide PD; for PEE: peptide PEE; for PVNF: peptide PVNF; for 3-phosphoglycerate: metabolite 3-phosphoglycerate; for ADP-D-glucose: metabolite ADP-D-glucose; for ATP: metabolite ATP; for CDP: metabolite CDP; for CDP / D-sedoheptulose-1/7-phosphate / GMP / Octoluse Bisphosphate / UDP / UMP / UTP / citrate/isocitrate / dGMP/AMP / fumarate / glucose-1/6-phosphate / glycerate / guanine / guanosine / inosine / pyruvate / sarcosine/alanine / succinate/methylmalonic acid / uridine / xanthosine: change in metabolite level after compound treatment; for D-sedoheptulose-1/7-phosphate: metabolite D-sedoheptulose-1/7-phosphate; for FAD: metabolite FAD; for GMP: metabolite GMP; for NAD+: metabolite NAD+; for NADP+: metabolite NADP+; for Octoluse Bisphosphate: metabolite Octoluse Bisphosphate; for Pyroglutamic acid: metabolite Pyroglutamic acid; for UDP-D-glucose: metabolite UDP-D-glucose; for UDP-D-glucuronate: metabolite UDP-D-glucuronate; for UDP-N-acetyl-glucosamine: metabolite UDP-N-acetyl-glucosamine; for UDP: metabolite UDP; for UMP: metabolite UMP; for UTP: metabolite UTP; for a-ketoglutarate: metabolite a-ketoglutarate; for citrate/isocitrate: metabolite citrate/isocitrate; for cytidine: metabolite cytidine; for dATP: metabolite dATP; for dGMP/AMP: metabolite dGMP/AMP; for fumarate: metabolite fumarate; for glucose-1/6-phosphate: metabolite glucose-1/6-phosphate; for glycerate: metabolite glycerate; for guanine: metabolite guanine; for guanosine: metabolite guanosine; for hypoxanthine: metabolite hypoxanthine; for indole: metabolite indole; for inosine: metabolite inosine; for 2_3-Diphosphoglyceric acid / 4-phosphopantothenate / 6-phospho-D-gluconate / FMN / IMP / Pyrophosphate / Sedoheptoluse bisphosphate / cyclic-AMP / glutathione disulfide / lactate / myo-inositol: metabolite level change after treatment; for nicotinate: metabolite nicotinate; for ornithine: metabolite ornithine; for phosphoenolpyruvate: metabolite phosphoenolpyruvate; for pyruvate: metabolite pyruvate; for ribose-phosphate: metabolite ribose-phosphate; for sarcosine/alanine: metabolite sarcosine/alanine; for sn-glycerol-3-phosphate: metabolite sn-glycerol-3-phosphate; for succinate/methylmalonic acid: metabolite succinate/methylmalonic acid; for uridine: metabolite uridine; for xanthosine: metabolite xanthosine
P. falciparum = assay: EC50 listed in S2 Table Metabolomics (used to set the concentration tested); format: cell-based; conditions: Plasmodium falciparum; EC50 used for Factor_XEC50 in metabolomics; read-out: EC50_nM

pEC50 (P. falciparum): 6.28
Structure (SMILES): COc1ccc2c(=O)cc(C(Cl)(Cl)Cl)oc2c1 [MMV665820]
Acetyllysine [1]: -2.345 | N-acetyl-L-ornithine [1]: -3.277 | N-carbamoyl-L-aspartate [1]: -3.842 | NADPH [1]: -0.2986 | dAMP [1]: -0.8398 | dCMP [1]: -0.0001746 | dTDP [1]: -1.2684 | dTMP [1]: -0.5586 | dTTP [1]: -2.5615 | dihydroorotate [1]: -2.921 | orotate [1]: -2.382 | DLH [1]: -2.464 | DLS/SDL/SID [1]: -1.694 | PD [1]: -4.28 | PEE [1]: -1.0444 | PVNF [1]: -2.464 | 3-phosphoglycerate [1]: -2.392 | ADP-D-glucose [1]: -0.3227 | ATP [1]: -1.288 | CDP [1]: -0.9038 | D-sedoheptulose-1/7-phosphate [1]: 0.5405 | FAD [1]: -1.407 | GMP [1]: -1.717 | NAD+ [1]: -0.3778 | NADP+ [1]: -0.008784 | Octoluse Bisphosphate [1]: -4.199 | Pyroglutamic acid [1]: 0.4738 | UDP-D-glucose [1]: -0.2217 | UDP-D-glucuronate [1]: -0.02834 | UDP-N-acetyl-glucosamine [1]: -0.2815 | UDP [1]: -0.477 | UMP [1]: -2.629 | UTP [1]: -1.869 | a-ketoglutarate [1]: 0.2276 | citrate/isocitrate [1]: -0.6427 | cytidine [1]: -0.5777 | dATP [1]: -2.2274 | dGMP/AMP [1]: 0.08346 | fumarate [1]: -2.544 | glucose-1/6-phosphate [1]: -2.012 | glycerate [1]: -1.622 | guanine [1]: -1.809 | guanosine [1]: -1.332 | hypoxanthine [1]: 0.4621 | indole [1]: 0.006213 | inosine [1]: -2.706 | 2_3-Diphosphoglyceric acid [1]: -2.758 | 4-phosphopantothenate [1]: -2.584 | 6-phospho-D-gluconate [1]: -2.402 | FMN [1]: -1.9 | IMP [1]: -1.4619 | Pyrophosphate [1]: -2.687 | Sedoheptoluse bisphosphate [1]: -3.03 | cyclic-AMP [1]: -3.2218 | glutathione disulfide [1]: -1.807 | lactate [1]: -6.313 | myo-inositol [1]: -0.0001746 | nicotinate [1]: -0.2855 | ornithine [1]: 0.1501 | phosphoenolpyruvate [1]: -1.494 | pyruvate [1]: -2.492 | ribose-phosphate [1]: -0.0001746 | sarcosine/alanine [1]: -2.81 | sn-glycerol-3-phosphate [1]: -1.932 | succinate/methylmalonic acid [1]: -1.8645 | uridine [1]: -1.942 | xanthosine [1]: -0.05367

pEC50 (P. falciparum): 6.29
Structure (SMILES): CCn1c(CN2CCN(Cc3ccccc3)CC2)nc2cc(NC(=O)c3cccs3)ccc21 [MMV020439]
Acetyllysine [1]: 0.7202 | N-acetyl-L-ornithine [1]: 1.173 | N-carbamoyl-L-aspartate [1]: 4.61 | NADPH [1]: 0.6182 | dAMP [1]: -1.31 | dCMP [1]: -0.04169 | dTDP [1]: -1.17 | dTMP [1]: -0.7966 | dTTP [1]: -1.312 | dihydroorotate [1]: 4.909 | orotate [1]: 0.06984 | DLH [1]: 0.527 | DLS/SDL/SID [1]: 0.4749 | PD [1]: 0.8243 | PEE [1]: 1.011 | PVNF [1]: 0.2931 | 3-phosphoglycerate [1]: -0.2906 | ADP-D-glucose [1]: 0.1986 | ATP [1]: -0.1401 | CDP [1]: -0.619 | D-sedoheptulose-1/7-phosphate [1]: 0.1339 | FAD [1]: 0.2064 | GMP [1]: -0.008752 | NAD+ [1]: -0.02079 | NADP+ [1]: 0.1784 | Octoluse Bisphosphate [1]: -0.1148 | Pyroglutamic acid [1]: -0.1051 | UDP-D-glucose [1]: -0.06605 | UDP-D-glucuronate [1]: -0.1248 | UDP-N-acetyl-glucosamine [1]: -0.297 | UDP [1]: -1.2 | UMP [1]: -1.107 | UTP [1]: -1.42 | a-ketoglutarate [1]: -0.8941 | citrate/isocitrate [1]: -0.2089 | cytidine [1]: 0.004614 | dATP [1]: 0.08773 | dGMP/AMP [1]: -0.284 | fumarate [1]: 0.6925 | glucose-1/6-phosphate [1]: -0.2278 | glycerate [1]: -0.4348 | guanine [1]: 0.1895 | guanosine [1]: 0.2428 | hypoxanthine [1]: -0.1751 | indole [1]: -0.1227 | inosine [1]: -0.4694 | 2_3-Diphosphoglyceric acid [1]: -0.2253 | 4-phosphopantothenate [1]: -0.909 | 6-phospho-D-gluconate [1]: -0.007867 | FMN [1]: -0.349 | IMP [1]: -0.2804 | Pyrophosphate [1]: -0.2048 | Sedoheptoluse bisphosphate [1]: 0.08493 | cyclic-AMP [1]: -0.08461 | glutathione disulfide [1]: -0.0242 | lactate [1]: -0.4874 | myo-inositol [1]: -0.8159 | nicotinate [1]: -0.2742 | ornithine [1]: -0.03081 | phosphoenolpyruvate [1]: -0.3915 | pyruvate [1]: -0.2887 | ribose-phosphate [1]: -0.1311 | sarcosine/alanine [1]: 1.094 | sn-glycerol-3-phosphate [1]: 0.2993 | succinate/methylmalonic acid [1]: 0.5601 | uridine [1]: 0.2091 | xanthosine [1]: -0.0525

pEC50 (P. falciparum): 6.29
Structure (SMILES): COc1ccc(C(=O)Nc2nonc2-c2ccc(OC)c(OC)c2)cc1Cl [MMV011567]
Acetyllysine [1]: -2.7765 | N-acetyl-L-ornithine [1]: -1.047 | N-carbamoyl-L-aspartate [1]: -1.546 | NADPH [1]: -0.479 | dAMP [1]: 2.616 | dCMP [1]: 7.615 | dTDP [1]: 4.376 | dTMP [1]: 5.592 | dTTP [1]: 4.192 | dihydroorotate [1]: -1.311 | orotate [1]: 1.606 | DLH [1]: -3.738 | DLS/SDL/SID [1]: -3.085 | PD [1]: -0.447 | PEE [1]: -2.659 | PVNF [1]: -4.149 | 3-phosphoglycerate [1]: -0.4312 | ADP-D-glucose [1]: -0.3179 | ATP [1]: 0.7262 | CDP [1]: 1.853 | D-sedoheptulose-1/7-phosphate [1]: -0.5728 | FAD [1]: -0.6926 | GMP [1]: -3.051 | NAD+ [1]: -0.6365 | NADP+ [1]: -0.4288 | Octoluse Bisphosphate [1]: -1.352 | Pyroglutamic acid [1]: 0.8228 | UDP-D-glucose [1]: 0.2841 | UDP-D-glucuronate [1]: 0.3235 | UDP-N-acetyl-glucosamine [1]: 0.4364 | UDP [1]: 1.166 | UMP [1]: 0.1995 | UTP [1]: 0.7659 | a-ketoglutarate [1]: -0.1289 | citrate/isocitrate [1]: 1.575 | cytidine [1]: 0.6834 | dATP [1]: 1.434 | dGMP/AMP [1]: -0.9068 | fumarate [1]: 0.5595 | glucose-1/6-phosphate [1]: -0.4437 | glycerate [1]: -0.2059 | guanine [1]: 1.129 | guanosine [1]: 0.9628 | hypoxanthine [1]: 0.8431 | indole [1]: 0.1357 | inosine [1]: -0.4655 | 2_3-Diphosphoglyceric acid [1]: -0.4768 | 4-phosphopantothenate [1]: 0.1624 | 6-phospho-D-gluconate [1]: 0.2149 | FMN [1]: 0.2743 | IMP [1]: 0.2415 | Pyrophosphate [1]: -0.9055 | Sedoheptoluse bisphosphate [1]: -0.2891 | cyclic-AMP [1]: 0.1677 | glutathione disulfide [1]: 0.2649 | lactate [1]: -0.6986 | myo-inositol [1]: -1.672 | nicotinate [1]: 1.088 | ornithine [1]: 0.1615 | phosphoenolpyruvate [1]: -0.2076 | pyruvate [1]: -1.296 | ribose-phosphate [1]: -0.6006 | sarcosine/alanine [1]: -1.205 | sn-glycerol-3-phosphate [1]: 0.6609 | succinate/methylmalonic acid [1]: -0.1426 | uridine [1]: 0.07808 | xanthosine [1]: 0.9674
